Test results taken from patent US20230348376A1 (TEIJIN PHARMA LIMITED, priority 2020, published 2023).

System: mouse neural stem cells (NSCs)
Test: Promoting activity in oligodendrocyte differentiation of mouse neural stem cell (GalC immunostaining)
Assay type: cell-based
Conditions: day 10, N=5
Procedure: To NSC basal medium (100 mL) included in this product, B27 (1 mL), Penicillin-Streptomycin (1 mL), Glutamine (1 mL), bFGF (20 μL), EGF (10 μL), and Heparin (100 μL) were added to prepare the growth medium. Mouse neural stem cells were reconstituted in a T-25 flask using the growth medium and proliferated as a neurosphere by suspension culture. The cells were expanded by passaging at a split ratio=1:2 in a CO2 incubator (5% CO2, 37° C., wet) to obtain the required number of cells. ACCUTASE (Innovative Cell Technologies, Cat. No. AT104) was used as the passage reagent.
The differentiation medium containing test substance was prepared to a target final concentration by diluting a solution of 20 mM compound in DMSO to 10-fold with DMSO and then to 2×10^5-fold with the differentiation medium. Additive-free differentiation medium for control was prepared by diluting DMSO to 2×10^5-fold with the differentiation medium to be a final concentration of 5×10^−5%.
The mouse neural stem cells were seeded on a poly-L-Lysine/Laminin-coated 96-well plate at a cell density of 2.0×10^4 cells/100 μL/well using the differentiation medium and the culture was started in a CO2 incubator (5% CO2, 37° C., wet). The next day, the medium was replaced with the differentiation medium containing a test substance or an additive-free differentiation medium for control, and evaluation of the test substance (N=5) was started (day 0). The medium was replaced every other day by 60% of the medium in the wells. On day 10, cells were fixed and immunostained.
After the medium was removed, the cells were fixed by adding 100 μL of 4% paraformaldehyde-PBS and being incubated at room temperature for 30 minutes. Next, the cells were washed 3 times with PBS, 100 μL of 5% Goat Serum/PBS was added thereto, and the mixture was incubated at room temperature for 30 minutes to perform blocking and membrane permeation treatment. […] After the cells were washed 3 times with PBS, 100 μL of PBS was added to the wells, and the wells were photographed with fluorescence microscopy. Images were taken under the same condition in all wells, and blue fluorescence and green fluorescence were simultaneously photographed.
Using the hybrid cell counting software provided in the fluorescence microscope (Keyence, BZ-X700), co-localized spots of green fluorescence and blue fluorescence were extracted, and the number of these spots was defined as the total number of GalC-positive cells, and the oligodendrocyte differentiation ratio was calculated by the following calculation:the total number of GalC-positive cells/the number of nuclei (number of blue fluorescence spots). A significant difference test was performed by t-test between the additive-free group and the sample-added group.

C[C@H](CCN1CCOCC1)[C@H]1CC[C@H]2/C(=C/C=C3C[C@@H](O)C[C@H](O)C3)CCC[C@]12C [Compound D023, (1R,3R)-5-(2-((1R,3aS,7aR,E)-7a-methyl-1-((R)-4-morpholinobutan-2-yl)octahydro-4H-inden-4-ylidene)ethylidene)cyclohexane-1,3-diol]
Gal/C positive ratio Average value (10 nM): 8.63
Gal/C positive ratio Average value (100 nM): 11.51
Gal/C positive ratio Average value (1000 nM): 12.19
